Source: article PMC9067983, “Identification of highly selective type II kinase inhibitors with chiral peptidomimetic tails” (Journal of Enzyme Inhibition and Medicinal Chemistry, 2022)
Where a SMILES comes first, the peptide text is derived from it. [ ]: non-standard residue; d: D form. The star is where a group is joined. X1 = Cc1ccc(Nc2ncc3c(n2)N(C)C(=O)N(c2cc(C(=O)*)ccc2C)C3)cn1; Aib = CC(C)(N)C(=O)O

Key:
Assay in all cases: kinase selectivity profiling
Assay type in all cases: biochemical
Conditions in all cases: 10µM ATP, read-out: % inhibition (relative to DMSO)
TBK1 = molecular target: T1, TBK1 (Homo sapiens, UniProt Q9UHD2)
T1 construct: purchased Reaction Biology Corp
Method: (§1) Full panel kinase profiling and kinase IC50 measurement were performed by using Reaction Biology Corp. (San Diego, USA).

Lyn = molecular target: T2, Lyn (Homo sapiens, UniProt P07948)
T2 construct: purchased Reaction Biology Corp
Method: as §1

EPHA4 = molecular target: T3, EPHA4 (Homo sapiens, UniProt P54764)
T3 construct: purchased Reaction Biology Corp
Method: as §1

LIMK2 = molecular target: T4, LIMK2 (Homo sapiens, UniProt P53671)
T4 construct: purchased Reaction Biology Corp
Method: as §1

STK38L/NDR2 = molecular target: T5, STK38L/NDR2 (Homo sapiens, UniProt Q9Y2H1)
T5 construct: purchased Reaction Biology Corp
Method: as §1

MAPKAPK2 = molecular target: T6, MAPKAPK2 (Homo sapiens, UniProt P49137)
T6 construct: purchased Reaction Biology Corp
Method: as §1

MST3/STK24 = molecular target: T7, MST3/STK24 (Homo sapiens, UniProt Q9Y6E0)
T7 construct: purchased Reaction Biology Corp
Method: as §1

MLK1/MAP3K9 = molecular target: T8, MLK1/MAP3K9 (Homo sapiens, UniProt P80192)
T8 construct: purchased Reaction Biology Corp
Method: as §1

EPHA3 = molecular target: T9, EPHA3 (Homo sapiens, UniProt P29320)
T9 construct: purchased Reaction Biology Corp
Method: as §1

FGFR4 = molecular target: T10, FGFR4 (Homo sapiens, UniProt P22455)
T10 construct: purchased Reaction Biology Corp
Method: as §1

MUSK = molecular target: T11, MUSK (Homo sapiens, UniProt O15146)
T11 construct: purchased Reaction Biology Corp
Method: as §1

CK2a = molecular target: T12, CK2a (Homo sapiens, UniProt P68400)
T12 construct: purchased Reaction Biology Corp
Method: as §1

STK39/STLK3 = molecular target: T13, STK39/STLK3 (Homo sapiens, UniProt Q9UEW8)
T13 construct: purchased Reaction Biology Corp
Method: as §1

PYK2 = molecular target: T14, PYK2 (Homo sapiens, UniProt Q14289)
T14 construct: purchased Reaction Biology Corp
Method: as §1

HIPK3 = molecular target: T15, HIPK3 (Homo sapiens, UniProt Q9H422)
T15 construct: purchased Reaction Biology Corp
Method: as §1

BMPR2 = molecular target: T16, BMPR2 (Homo sapiens, UniProt Q13873)
T16 construct: purchased Reaction Biology Corp
Method: as §1

MSK1/RPS6KA5 = molecular target: T17, MSK1/RPS6KA5 (Homo sapiens, UniProt O75582)
T17 construct: purchased Reaction Biology Corp
Method: as §1

LATS2 = molecular target: T18, LATS2 (Homo sapiens, UniProt Q9NRM7)
T18 construct: purchased Reaction Biology Corp
Method: as §1

VRK1 = molecular target: T19, VRK1 (Homo sapiens, UniProt Q99986)
T19 construct: purchased Reaction Biology Corp
Method: as §1

MKK7 = molecular target: T20, MKK7 (Homo sapiens, UniProt O14733)
T20 construct: purchased Reaction Biology Corp
Method: as §1

Abl1 = molecular target: T21, Abl1 (Homo sapiens, UniProt P00519)
T21 construct: purchased Reaction Biology Corp
Method: as §1

c-MET = molecular target: T22, c-MET (Homo sapiens, UniProt P08581)
T22 construct: purchased Reaction Biology Corp
Method: as §1

FAK/PTK2 = molecular target: T23, FAK/PTK2 (Homo sapiens, UniProt Q05397)
T23 construct: purchased Reaction Biology Corp
Method: as §1

STK25/YSK1 = molecular target: T24, STK25/YSK1 (Homo sapiens, UniProt O00506)
T24 construct: purchased Reaction Biology Corp
Method: as §1

CAMK2a = molecular target: T25, CAMK2a (Homo sapiens, UniProt Q9UQM7)
T25 construct: purchased Reaction Biology Corp
Method: as §1

Aurora A = molecular target: T26, Aurora A (Homo sapiens, UniProt O14965)
T26 construct: purchased Reaction Biology Corp
Method: as §1

CDK3/cyclin E2 = molecular target: T27, CDK3/cyclin E2 (Homo sapiens, UniProt Q00526)
T27 construct: purchased Reaction Biology Corp
Method: as §1

PLK3 = molecular target: T28, PLK3 (Homo sapiens, UniProt Q9H4B4)
T28 construct: purchased Reaction Biology Corp
Method: as §1

SBK1 = molecular target: T29, SBK1 (Homo sapiens, UniProt Q52WX2)
T29 construct: purchased Reaction Biology Corp
Method: as §1

CLK2 = molecular target: T30, CLK2 (Homo sapiens, UniProt P49760)
T30 construct: purchased Reaction Biology Corp
Method: as §1

IKKb/IKBKB = molecular target: T31, IKKb/IKBKB (Homo sapiens, UniProt O14920)
T31 construct: purchased Reaction Biology Corp
Method: as §1

p38a/MAPK14 = molecular target: T32, p38a/MAPK14 (Homo sapiens, UniProt Q16539)
T32 construct: purchased Reaction Biology Corp
Method: as §1

CDC7/DBF4 = molecular target: T33, CDC7/DBF4 (Homo sapiens, UniProt O00311)
T33 construct: purchased Reaction Biology Corp
Method: as §1

STK21/CIT = molecular target: T34, STK21/CIT (Homo sapiens, UniProt O14578)
T34 construct: purchased Reaction Biology Corp
Method: as §1

MEKK2 = molecular target: T35, MEKK2 (Homo sapiens, UniProt Q9Y2U5)
T35 construct: purchased Reaction Biology Corp
Method: as §1

PKG1b = molecular target: T36, PKG1b (Homo sapiens, UniProt Q13976)
T36 construct: purchased Reaction Biology Corp
Method: as §1

MNK1 = molecular target: T37, MNK1 (Homo sapiens, UniProt Q9BUB5)
T37 construct: purchased Reaction Biology Corp
Method: as §1

CAMKK2 = molecular target: T38, CAMKK2 (Homo sapiens, UniProt Q96RR4)
T38 construct: purchased Reaction Biology Corp
Method: as §1

MST1/STK4 = molecular target: T39, MST1/STK4 (Homo sapiens, UniProt Q13043)
T39 construct: purchased Reaction Biology Corp
Method: as §1

MYLK4 = molecular target: T40, MYLK4 (Homo sapiens, UniProt Q86YV6)
T40 construct: purchased Reaction Biology Corp
Method: as §1

EPHA2 = molecular target: T41, EPHA2 (Homo sapiens, UniProt P29317)
T41 construct: purchased Reaction Biology Corp
Method: as §1

MASTL = molecular target: T42, MASTL (Homo sapiens, UniProt Q96GX5)
T42 construct: purchased Reaction Biology Corp
Method: as §1

STK32C/YANK3 = molecular target: T43, STK32C/YANK3 (Homo sapiens, UniProt Q86UX6)
T43 construct: purchased Reaction Biology Corp
Method: as §1

T15 sequence (Q9H422 whole entry): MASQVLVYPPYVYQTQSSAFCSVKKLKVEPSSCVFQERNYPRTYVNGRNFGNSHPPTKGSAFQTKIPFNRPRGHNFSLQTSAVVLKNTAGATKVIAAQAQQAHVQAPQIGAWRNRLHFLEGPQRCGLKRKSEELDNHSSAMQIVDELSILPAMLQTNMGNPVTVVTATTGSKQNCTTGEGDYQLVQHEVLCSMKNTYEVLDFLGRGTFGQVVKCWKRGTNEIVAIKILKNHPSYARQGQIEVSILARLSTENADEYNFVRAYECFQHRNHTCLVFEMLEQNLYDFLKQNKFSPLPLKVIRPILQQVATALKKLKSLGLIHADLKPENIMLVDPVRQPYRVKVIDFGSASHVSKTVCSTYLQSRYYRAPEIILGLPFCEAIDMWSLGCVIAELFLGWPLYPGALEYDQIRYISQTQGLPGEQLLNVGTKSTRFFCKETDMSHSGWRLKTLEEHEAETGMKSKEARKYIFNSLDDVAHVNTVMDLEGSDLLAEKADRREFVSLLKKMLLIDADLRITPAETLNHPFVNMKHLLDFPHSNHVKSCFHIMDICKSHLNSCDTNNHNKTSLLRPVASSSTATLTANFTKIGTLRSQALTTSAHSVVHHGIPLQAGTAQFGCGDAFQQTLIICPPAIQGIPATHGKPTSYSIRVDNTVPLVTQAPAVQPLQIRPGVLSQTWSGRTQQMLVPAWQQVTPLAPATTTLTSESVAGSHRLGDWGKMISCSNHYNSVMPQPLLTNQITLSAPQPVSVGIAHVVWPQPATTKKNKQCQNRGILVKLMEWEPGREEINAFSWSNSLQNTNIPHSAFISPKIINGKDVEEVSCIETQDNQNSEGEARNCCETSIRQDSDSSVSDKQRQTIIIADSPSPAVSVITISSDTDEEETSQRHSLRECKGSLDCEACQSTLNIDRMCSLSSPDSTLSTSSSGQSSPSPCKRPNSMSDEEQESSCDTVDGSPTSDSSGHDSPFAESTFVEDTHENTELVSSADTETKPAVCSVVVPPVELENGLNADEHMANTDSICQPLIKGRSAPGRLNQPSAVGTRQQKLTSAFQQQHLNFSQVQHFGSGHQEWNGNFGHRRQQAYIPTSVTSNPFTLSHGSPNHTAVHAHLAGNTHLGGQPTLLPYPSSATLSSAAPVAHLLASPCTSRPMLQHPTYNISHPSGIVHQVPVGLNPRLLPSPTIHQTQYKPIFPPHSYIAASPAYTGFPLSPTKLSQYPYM
T2 sequence (P07948 whole entry): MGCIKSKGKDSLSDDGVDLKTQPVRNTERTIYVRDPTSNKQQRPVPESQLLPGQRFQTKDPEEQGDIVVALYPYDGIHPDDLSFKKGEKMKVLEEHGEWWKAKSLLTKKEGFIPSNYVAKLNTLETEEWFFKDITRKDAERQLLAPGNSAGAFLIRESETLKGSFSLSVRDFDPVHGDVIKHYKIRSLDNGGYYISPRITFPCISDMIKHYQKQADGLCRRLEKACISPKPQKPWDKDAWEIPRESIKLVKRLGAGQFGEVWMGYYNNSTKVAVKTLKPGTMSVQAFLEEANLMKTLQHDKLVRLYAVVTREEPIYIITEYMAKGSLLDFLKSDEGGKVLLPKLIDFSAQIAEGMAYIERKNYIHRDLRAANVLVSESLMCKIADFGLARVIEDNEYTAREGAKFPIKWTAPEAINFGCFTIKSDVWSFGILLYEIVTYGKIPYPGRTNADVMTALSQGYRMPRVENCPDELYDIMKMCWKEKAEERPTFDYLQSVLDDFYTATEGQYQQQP
T19 sequence (Q99986 whole entry): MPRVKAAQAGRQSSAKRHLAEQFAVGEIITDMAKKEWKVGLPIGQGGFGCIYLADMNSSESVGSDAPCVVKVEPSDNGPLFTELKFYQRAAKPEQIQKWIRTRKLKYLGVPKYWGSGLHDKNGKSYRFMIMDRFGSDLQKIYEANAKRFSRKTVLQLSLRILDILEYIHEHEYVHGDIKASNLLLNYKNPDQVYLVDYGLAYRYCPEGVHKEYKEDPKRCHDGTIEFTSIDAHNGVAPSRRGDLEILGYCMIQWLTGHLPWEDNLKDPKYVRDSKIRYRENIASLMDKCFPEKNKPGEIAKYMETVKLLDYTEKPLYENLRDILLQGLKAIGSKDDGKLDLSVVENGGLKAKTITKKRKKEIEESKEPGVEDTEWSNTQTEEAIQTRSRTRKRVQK
T34 sequence (O14578 whole entry): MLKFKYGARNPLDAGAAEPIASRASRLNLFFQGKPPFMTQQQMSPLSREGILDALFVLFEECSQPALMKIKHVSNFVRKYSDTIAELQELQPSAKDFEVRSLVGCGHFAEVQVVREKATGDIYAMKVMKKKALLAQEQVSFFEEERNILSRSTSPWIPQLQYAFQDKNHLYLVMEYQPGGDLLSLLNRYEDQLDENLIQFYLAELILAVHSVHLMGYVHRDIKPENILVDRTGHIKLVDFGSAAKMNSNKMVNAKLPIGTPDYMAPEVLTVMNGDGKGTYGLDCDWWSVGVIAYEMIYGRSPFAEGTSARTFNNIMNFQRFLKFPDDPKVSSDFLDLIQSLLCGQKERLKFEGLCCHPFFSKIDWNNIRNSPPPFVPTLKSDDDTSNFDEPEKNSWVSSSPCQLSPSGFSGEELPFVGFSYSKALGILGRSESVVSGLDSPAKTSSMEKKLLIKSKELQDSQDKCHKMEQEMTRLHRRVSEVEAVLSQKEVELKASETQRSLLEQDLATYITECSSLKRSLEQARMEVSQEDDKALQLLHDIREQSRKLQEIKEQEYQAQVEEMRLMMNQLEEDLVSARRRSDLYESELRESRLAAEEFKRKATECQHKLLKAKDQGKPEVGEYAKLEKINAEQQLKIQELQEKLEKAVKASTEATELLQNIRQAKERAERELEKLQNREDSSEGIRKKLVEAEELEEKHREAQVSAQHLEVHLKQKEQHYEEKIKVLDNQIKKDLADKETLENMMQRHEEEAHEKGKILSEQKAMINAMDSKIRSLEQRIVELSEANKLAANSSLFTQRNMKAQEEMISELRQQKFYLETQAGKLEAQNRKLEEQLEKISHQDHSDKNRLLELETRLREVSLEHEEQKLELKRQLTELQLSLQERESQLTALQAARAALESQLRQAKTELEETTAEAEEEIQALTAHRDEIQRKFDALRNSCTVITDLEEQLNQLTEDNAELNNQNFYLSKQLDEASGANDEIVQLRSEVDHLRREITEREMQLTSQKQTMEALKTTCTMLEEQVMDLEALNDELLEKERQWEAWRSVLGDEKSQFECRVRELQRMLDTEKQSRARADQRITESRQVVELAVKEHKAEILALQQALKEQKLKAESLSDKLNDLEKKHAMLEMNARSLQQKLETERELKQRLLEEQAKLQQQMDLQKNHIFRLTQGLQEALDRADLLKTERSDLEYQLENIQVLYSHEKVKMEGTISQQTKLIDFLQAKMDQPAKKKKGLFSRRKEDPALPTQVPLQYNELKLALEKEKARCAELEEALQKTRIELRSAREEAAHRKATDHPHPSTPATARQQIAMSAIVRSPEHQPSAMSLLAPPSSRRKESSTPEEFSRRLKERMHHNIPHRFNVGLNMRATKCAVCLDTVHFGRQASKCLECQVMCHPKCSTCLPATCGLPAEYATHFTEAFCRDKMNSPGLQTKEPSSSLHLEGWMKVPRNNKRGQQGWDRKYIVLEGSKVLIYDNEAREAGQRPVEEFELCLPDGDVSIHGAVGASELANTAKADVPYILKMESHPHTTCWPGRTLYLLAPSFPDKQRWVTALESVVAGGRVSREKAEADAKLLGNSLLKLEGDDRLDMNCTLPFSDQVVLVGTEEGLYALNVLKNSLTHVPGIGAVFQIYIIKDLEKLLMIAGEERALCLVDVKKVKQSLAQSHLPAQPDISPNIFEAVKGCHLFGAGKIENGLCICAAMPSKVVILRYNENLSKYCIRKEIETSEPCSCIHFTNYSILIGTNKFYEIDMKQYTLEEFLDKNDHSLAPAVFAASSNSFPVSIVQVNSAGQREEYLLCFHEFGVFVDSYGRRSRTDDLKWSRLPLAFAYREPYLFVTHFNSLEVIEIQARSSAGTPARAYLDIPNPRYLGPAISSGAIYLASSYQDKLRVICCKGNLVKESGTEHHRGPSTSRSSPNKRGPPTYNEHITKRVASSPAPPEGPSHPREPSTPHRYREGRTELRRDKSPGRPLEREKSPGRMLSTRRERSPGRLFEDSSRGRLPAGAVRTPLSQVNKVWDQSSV
T12 sequence (P68400 whole entry): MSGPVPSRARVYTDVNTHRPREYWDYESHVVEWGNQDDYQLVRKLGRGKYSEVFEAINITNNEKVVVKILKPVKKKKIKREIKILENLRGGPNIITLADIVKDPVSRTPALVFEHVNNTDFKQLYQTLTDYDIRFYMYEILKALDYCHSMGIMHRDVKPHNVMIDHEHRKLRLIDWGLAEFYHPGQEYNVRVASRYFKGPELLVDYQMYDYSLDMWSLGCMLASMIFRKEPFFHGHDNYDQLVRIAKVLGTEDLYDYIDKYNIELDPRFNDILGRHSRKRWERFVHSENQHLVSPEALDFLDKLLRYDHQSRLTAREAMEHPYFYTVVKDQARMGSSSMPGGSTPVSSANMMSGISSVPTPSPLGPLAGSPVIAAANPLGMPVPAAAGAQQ
T29 sequence (Q52WX2 whole entry): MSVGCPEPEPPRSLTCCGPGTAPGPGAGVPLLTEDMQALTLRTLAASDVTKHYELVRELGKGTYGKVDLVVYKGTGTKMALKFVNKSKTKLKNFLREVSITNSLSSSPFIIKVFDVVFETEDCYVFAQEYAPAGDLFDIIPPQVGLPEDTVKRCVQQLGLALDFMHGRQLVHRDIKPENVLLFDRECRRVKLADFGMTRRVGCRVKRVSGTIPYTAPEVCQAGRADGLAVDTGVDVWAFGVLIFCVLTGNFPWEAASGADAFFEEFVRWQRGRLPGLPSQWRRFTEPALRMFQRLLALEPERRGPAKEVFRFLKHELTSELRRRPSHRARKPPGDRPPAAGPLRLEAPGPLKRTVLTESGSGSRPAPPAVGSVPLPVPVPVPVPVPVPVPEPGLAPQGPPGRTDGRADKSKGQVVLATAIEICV

## Cc1ccc(Nc2ncc3c(n2)N(C)C(=O)N(c2cc(C(=O)N[C@H](C(=O)N4CCC[C@H]4C(=O)NC(C)(C)C(=O)N[C@@H](CC(C)C)C(=O)N(C)C)C(C)C)ccc2C)C3)cn1 [7a, (S)-N-(1-(((S)-1-(dimethylamino)-4-methyl-1-oxopentan-2-yl)amino)-2-methyl-1-oxopropan-2-yl)-1-((4-methyl-3-(1-methyl-7-((6-methylpyridin-3-yl)amino)-2-oxo-1,4-dihydropyrimido[4,5-d]pyrimidin-3(2H)-yl)benzoyl)-L-valyl)pyrrolidine-2-carboxamide] (X1-VP[Aib]L-NMe2)
TBK1
  inhibition at 1 µM: 0%
Lyn
  inhibition at 1 µM: 73%
EPHA4
  inhibition at 1 µM: 29%
LIMK2
  inhibition at 1 µM: 12%
STK38L/NDR2
  inhibition at 1 µM: 4%
MAPKAPK2
  inhibition at 1 µM: 4%
MST3/STK24
  inhibition at 1 µM: 0%
MLK1/MAP3K9
  inhibition at 1 µM: 33%
EPHA3
  inhibition at 1 µM: 25%
FGFR4
  inhibition at 1 µM: 5%
MUSK
  inhibition at 1 µM: 7%
CK2a
  inhibition at 1 µM: 5%
STK39/STLK3
  inhibition at 1 µM: 0%
PYK2
  inhibition at 1 µM: 8%
HIPK3
  inhibition at 1 µM: 0%
BMPR2
  inhibition at 1 µM: 10%
MSK1/RPS6KA5
  inhibition at 1 µM: 0%
LATS2
  inhibition at 1 µM: 1%
VRK1
  inhibition at 1 µM: 0%
MKK7
  inhibition at 1 µM: 2%
Abl1
  inhibition at 1 µM: 63%
c-MET
  inhibition at 1 µM: 14%
FAK/PTK2
  inhibition at 1 µM: 5%
STK25/YSK1
  inhibition at 1 µM: 3%
CAMK2a
  inhibition at 1 µM: 8%
Aurora A
  inhibition at 1 µM: 0%
CDK3/cyclin E2
  inhibition at 1 µM: 0%
PLK3
  inhibition at 1 µM: 3%
SBK1
  inhibition at 1 µM: 0%
CLK2
  inhibition at 1 µM: 0%
IKKb/IKBKB
  inhibition at 1 µM: 0%
p38a/MAPK14
  inhibition at 1 µM: 15%
CDC7/DBF4
  inhibition at 1 µM: 0%
STK21/CIT
  inhibition at 1 µM: 0%
MEKK2
  inhibition at 1 µM: 0%
PKG1b
  inhibition at 1 µM: 0%
MNK1
  inhibition at 1 µM: 8%
CAMKK2
  inhibition at 1 µM: 10%
MST1/STK4
  inhibition at 1 µM: 5%
MYLK4
  inhibition at 1 µM: 8%
EPHA2
  inhibition at 1 µM: 21%
MASTL
  inhibition at 1 µM: 7%
STK32C/YANK3
  inhibition at 1 µM: 2%
